According to publication PMC10214524, “A Systematic Approach to the Discovery of Protein–Protein Interaction Stabilizers” (ACS Central Science, 2023):
Where a SMILES comes first, the peptide text is derived from it.

Tests used:
[1] = target: T1, 14-3-3σ (Homo sapiens, UniProt P31947); assay: 14-3-3σ titration to FITC-labeled phosphopeptide (peptide affinity)
T1 sequence (P31947 1-231 limits assumed): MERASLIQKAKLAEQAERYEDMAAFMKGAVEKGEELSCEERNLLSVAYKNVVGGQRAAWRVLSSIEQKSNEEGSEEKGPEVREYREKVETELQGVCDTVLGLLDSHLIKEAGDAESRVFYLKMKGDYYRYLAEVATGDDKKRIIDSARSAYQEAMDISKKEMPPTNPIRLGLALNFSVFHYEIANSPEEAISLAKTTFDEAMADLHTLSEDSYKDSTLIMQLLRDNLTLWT

[2] = target: T1, 14-3-3σ; assay: Ac-peptide competition assay against FITC-peptide (peptide affinity)

| Kd [1] | Ki [2] | Structure (SMILES) |
| --- | --- | --- |
| 4.64 µM | 9.5 µM | CC(=O)N[C@@H](CCCNC(=N)N)C(=O)N[C@@H](CCC(N)=O)C(=O)N[C@@H](CCCNC(=N)N)C(=O)N[C@@H](CO)C(=O)N[C@H](C(=O)N[C@@H](COP(=O)(O)O)C(=O)N[C@H](C(=O)N1CCC[C@H]1C(=O)N[C@@H](CC(N)=O)C(=O)N[C@H](C(=O)N[C@@H](Cc1c[nH]cn1)C(N)=O)C(C)C)[C@@H](C)O)[C@@H](C)O [C-RAF, Ac-RQRST{pS}TPNVH-CONH2] (HELM PEPTIDE1{[ac].R.Q.R.S.T.[O=C([C@H](COP(=O)(O)O)N[*:1])[*:2]].T.P.N.V.H.[am]}$$$$V2.0) |
| 5.06 µM | 3.66 µM | CC(=O)N1CCC[C@H]1C(=O)N[C@@H](CCCNC(=N)N)C(=O)N[C@@H](CCCNC(=N)N)C(=O)N[C@@H](CCCNC(=N)N)C(=O)N1CCC[C@H]1C(=O)N[C@@H](CCC(=O)O)C(=O)N[C@@H](COP(=O)(O)O)C(=O)N[C@@H](C)C(=O)N1CCC[C@H]1C(=O)N[C@@H](C)C(=O)N[C@@H](CCC(=O)O)C(=O)N[C@@H](CO)C(=O)N[C@@H](CO)C(N)=O [SOS1, Ac-PRRRPE{pS}APAESS-CONH2] (HELM PEPTIDE1{[ac].P.R.R.R.P.E.[O=C([C@H](COP(=O)(O)O)N[*:1])[*:2]].A.P.A.E.S.S.[am]}$$$$V2.0) |
| 3.77 µM | 14.3 µM | CC[C@H](C)[C@H](NC(=O)[C@H](CC(=O)O)NC(=O)[C@@H]1CCCN1C(=O)[C@H](CO)NC(=O)[C@H](COP(=O)(O)O)NC(=O)[C@H](Cc1ccc(O)cc1)NC(=O)[C@H](CO)NC(=O)[C@H](CCCNC(=N)N)NC(=O)[C@H](CCCCN)NC(=O)[C@H](CC(C)C)NC(=O)[C@H](CCCCN)NC(C)=O)C(=O)N[C@H](C(=O)N[C@@H](CCC(N)=O)C(N)=O)[C@@H](C)O [USP8, Ac-KLKRSY{pS}SPDITQ-CONH2] (HELM PEPTIDE1{[ac].K.L.K.R.S.Y.[O=C([C@H](COP(=O)(O)O)N[*:1])[*:2]].S.P.D.I.T.Q.[am]}$$$$V2.0) |

| Structure (SMILES) | Kd [1] | Ki [2] |
| --- | --- | --- |
| CC(=O)N[C@@H](CCCNC(=N)N)C(=O)N1CCC[C@H]1C(=O)N[C@@H](CCCNC(=N)N)C(=O)N[C@@H](CO)C(=O)N[C@@H](CS)C(=O)N[C@H](C(=O)N[C@@H](Cc1c[nH]c2ccccc12)C(=O)N1CCC[C@H]1C(=O)N[C@@H](CC(C)C)C(=O)N1CCC[C@H]1C(=O)N[C@@H](CCCNC(=N)N)C(N)=O)[C@@H](C)OP(=O)(O)O [FOXO1, Ac-RPRSC{pT}WPLPR-CONH2] (HELM PEPTIDE1{[ac].R.P.R.S.C.[C[C@@H](OP(=O)(O)O)[C@H](N[*:1])C(=O)[*:2]].W.P.L.P.R.[am]}$$$$V2.0) | – | 0.396 µM |
